# Laboratory results: patent EP0552657A1, “Use of pure Boswellic acid” (AMMON, Hermann P.T., priority 1992, dated 1993)
# Molecular target: T1, 5-Lipoxygenase (Rattus norvegicus, UniProt P12527)
# T1 sequence (P12527 1-673): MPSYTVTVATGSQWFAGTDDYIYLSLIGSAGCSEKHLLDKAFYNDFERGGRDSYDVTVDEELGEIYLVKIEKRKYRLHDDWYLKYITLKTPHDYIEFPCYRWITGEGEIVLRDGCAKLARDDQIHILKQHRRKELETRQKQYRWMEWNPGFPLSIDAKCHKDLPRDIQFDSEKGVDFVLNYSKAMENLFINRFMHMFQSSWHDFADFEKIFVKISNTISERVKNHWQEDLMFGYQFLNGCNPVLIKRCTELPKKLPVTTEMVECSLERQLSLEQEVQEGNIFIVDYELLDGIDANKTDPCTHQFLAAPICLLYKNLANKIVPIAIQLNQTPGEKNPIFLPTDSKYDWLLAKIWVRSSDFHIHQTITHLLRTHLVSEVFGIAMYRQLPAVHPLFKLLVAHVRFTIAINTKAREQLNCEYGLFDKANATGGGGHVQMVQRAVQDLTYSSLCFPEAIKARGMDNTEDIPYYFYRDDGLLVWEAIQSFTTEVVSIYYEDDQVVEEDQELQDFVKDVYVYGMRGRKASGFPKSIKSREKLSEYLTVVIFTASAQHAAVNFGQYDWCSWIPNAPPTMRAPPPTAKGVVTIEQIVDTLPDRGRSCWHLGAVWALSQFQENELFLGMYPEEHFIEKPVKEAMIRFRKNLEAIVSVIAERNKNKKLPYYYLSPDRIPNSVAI
# Assay: 5-lipoxygenase inhibition by boswellic acids (stimulated neutrophil granulocytes from rat peritoneum)
# Type: cell-based, Ratte
# Details: read-out: IC50-Werte für die 5-LO-Hemmung
# Description: Mit Hilfe des Testes mit Calcium- und Ionophor-stimulierten neutrophilen Leukozyten der Ratte konnte nachgewiesen werden, daß Extrakte aus Boswellia serrata vorwiegend die Bildung von Leukotrienen blockieren, dagegen die Prostaglandinsynthese erst in wesentlich höheren Konzentrationen beeinflussen (vgl. zur Methodik: a) Messung der Leukotriene: Safayhi et al., Biochem. Pharmacology, 34:2691-2694, 1985; b) Messung der Prostaglandine: Kommerzielle Radio-Immunoassay-Kits der Firma Amersham für 6-Keto-PGF1α).
# Anhand der beigefügten Zeichnungen wird die Erfindung näher erläutert. […] Methode: Safayhi et al., JPET accepted. • Fig. 4 die Elutionsprofile der durch Eisen/Ascorbat-Stimulation aus exogener Arachidonsäure im zellfreien System entstehenden oxidierten und hydroxylierten Produkte in Gegenwart steigender Konzentrationen von Acetyl-boswelliasäure (A) und Nordihydroguaiaretsäure (B). Methode: Safayhi et al., JPET accepted.
row,SMILES,IC50
1,CC(=O)O[C@@H]1CC[C@@]2(C)[C@@H](CC[C@]3(C)[C@@H]2C(=O)C=C2[C@@H]4[C@@H](C)[C@H](C)CC[C@]4(C)CC[C@]23C)[C@@]1(C)C(=O)O [Acetyl-11-keto-ß-boswelliasäure],2 µM
2,C[C@H]1[C@H](C)CC[C@]2(C)CC[C@]3(C)C(=CC(=O)[C@@H]4[C@@]5(C)CC[C@@H](O)[C@](C)(C(=O)O)[C@@H]5CC[C@]43C)[C@H]12 [11-Keto-ß-boswelliasäure],5 µM
3,CC(=O)O[C@@H]1CC[C@@]2(C)[C@@H](CC[C@]3(C)[C@@H]2CC=C2[C@@H]4[C@@H](C)[C@H](C)CC[C@]4(C)CC[C@]23C)[C@@]1(C)C(=O)O [Acetyl-boswelliasäure],7 µM
4,CC1(C)CC[C@]2(C)CC[C@]3(C)C(=CC[C@@H]4[C@@]5(C)CC[C@@H](O)[C@](C)(C(=O)O)[C@@H]5CC[C@]43C)[C@@H]2C1 [α-Boswelliasäure],5 µM
5,CC(=O)O[C@@H]1CC[C@@]2(C)[C@@H](CC[C@]3(C)[C@@H]2CC=C2[C@@H]4CC(C)(C)CC[C@]4(C)CC[C@]23C)[C@@]1(C)C(=O)O [Acetyl-α-boswelliasäure],7 µM
6,C[C@H]1[C@H](C)CC[C@]2(C)CC[C@]3(C)C(=CC[C@@H]4[C@@]5(C)CC[C@@H](O)[C@](C)(C(=O)O)[C@@H]5CC[C@]43C)[C@H]12 [ß-Boswelliasäure],5 µM
